Values of other authors in patent US20220000833A1, “COMPOSITIONS AND METHODS FOR TREATING O[…] APNEA” (THERAPIX BIOSCIENCES LTD., priority 2018, published 2022).

Columns and labels:
patients = settings: more than 40 years of clinical research, around 6000 patients, 300-1200 mg a day up to two months

SMILES | safety / side effects in clinical research (patients) | hypothesized lethal dose in humans (humans; based on rat studies) [mg/kg] | dose at which serious Dronabinol-associated adverse events in humans have been reported (humans; humans) [mg/kg] | estimated lethal dose in humans (humans; intravenous) [mg/kg]
CCCCCCCCCCCCCCCC(=O)NCCO [PEA, N-(2-hydroxyethyl)hexadecanamide] | no side effects has ever been reported |  |  | 
CCCCCc1cc(O)c2c(c1)OC(C)(C)[C@@H]1CCC(C)=C[C@@H]21 [Dronabinol, (−)-Trans-Δ9-tetrahydrocannabinol] |  | 30 | 0.4 | 30
